Test results published in article PMC10845951, “Characterization of a selective, iron-chelating antifungal compound that disrupts fungal metabolism and synergizes with fluconazole” (Microbiology Spectrum, 2024).

Test system: C. glabrata gene expression
Experiment: RNA sequencing (gene regulation)
Assay type: cell-based, Candida glabrata
Conditions: for Log2 Fold-Change: vs DMSO
Procedure: Cells from overnight precultures in YPD medium were reinoculated in fresh YNB −iron medium (see “Culture maintenance” for contents) without iron and grown until OD600 of 0.4. […] Cells were collected from three independent experiments, snap frozen, and stored at −80°C. Total RNA purification was performed as previously described using the RNeasy Mini Kit (74104, Qiagen), and gDNA removal was made using the RNase-Free DNase Set kit (79254, Qiagen). RNA quantification and quality control were done with a Tape Station 4150 (Agilent) ([59]).
Library preparation and sequencing were performed at GenomEast (IGBMC, Illkirch, France). One DMSO 0.05% sample was excluded from the analysis due to insufficient quality. The library was sequenced on Illumina Hiseq 4000 sequencer as single-read 50-base reads following Illumina’s instructions. Reads were pre-processed in order to remove adapter, polyA, and low-quality sequences (Phred quality score below 20). Reads shorter than 40 bases were discarded from further analysis. These pre-processing steps were performed using cutadapt version 1.10 ([60]). Image analysis and base calling were performed using RTA 2.7.7 and bcl2fastq2.17.1.14. Adapter dimer reads were removed using DimerRemover (https://sourceforge.net/projects/dimerremover/). The quality of the RNAseq reads was examined using FastQC 0.11.2 (http://www.bioinformatics.babraham.ac.uk/projects/fastqc/) and FastQScreen 0.5.1 (https://www.bioinformatics.babraham.ac.uk/projects/fastq_screen/). Reads were mapped onto the ASM254v2 assembly of Candida glabrata genome using STAR version 2.5.3a ([61]). Gene expression quantification was performed from uniquely aligned reads using htseq-count version 0.6.1p1 ([62]), with annotations from Ensembl fungi version 50 and union mode. Only non-ambiguously assigned reads have been retained for further analyses. Read counts were normalized across samples with the median-of-ratios method ([63]). Comparisons were implemented in the Bioconductor package DESeq2 version 1.16.1 using the test for differential expression ([64]). Genes with no P-value corresponded to genes with high Cook’s distance that were filtered out. P-values were adjusted for multiple testing using the Benjamini and Hochberg method ([65]). Genes with no adjusted P-value correspond to genes filtered out in the independent filtering step in order to remove reads from genes that have no or little chance of showing evidence of significant differential expression.

c1ccc(-c2cccc(-c3ccccn3)n2)nc1 [2,2′:6′,2′′-terpyridine] was tested, and the genes significantly downregulated (10 µM, 1 h) was 220 genes, the genes significantly upregulated (10 µM, 1 h) was 224 genes and the “Log2 Fold-Change” value (ALD5 CAGL0J03212g) was 0.7544. The “Log2 Fold-Change” value (AP5 CAGL0K08756g) was 0.9964, the “Log2 Fold-Change” value (APE1 CAGL0K08536g) was 0.6939 and the transcriptional response (C. glabrata and S. cerevisiae) was “strong iron starvation response”. The “Log2 Fold-Change” value (CAGL0A03674g) was 0.5588, the “Log2 Fold-Change” value (CAGL0B00484g) was 0.7628 and the “Log2 Fold-Change” value (CAGL0B00792g) was 1.214. For the same compound, the “Log2 Fold-Change” value (CAGL0B00880g) was 0.7009, the “Log2 Fold-Change” value (CAGL0B01485g) was 0.6219 and the “Log2 Fold-Change” value (CAGL0B02343g) was 1.023. For the same compound, the “Log2 Fold-Change” value (CAGL0H06963g) was 0.7275, the “Log2 Fold-Change” value (CAGL0H06985g) was 0.7901 and the “Log2 Fold-Change” value (CAGL0H07205g) was 0.5522. For the same compound, the “Log2 Fold-Change” value (CAGL0H08393g) was 1.535, the “Log2 Fold-Change” value (CAGL0H09966g) was 1.521 and the “Log2 Fold-Change” value (CAGL0I00264g) was 0.9978. For the same compound, the “Log2 Fold-Change” value (CAGL0I02354g) was 0.6425, the “Log2 Fold-Change” value (CAGL0I02376g) was 0.6418 and the “Log2 Fold-Change” value (CAGL0I02398g) was 0.5822. The “Log2 Fold-Change” value (CAGL0I02508g) was 0.5529, the “Log2 Fold-Change” value (CAGL0I02684g) was 0.5135 and the “Log2 Fold-Change” value (CAGL0I03344g) was 0.7316. For the same compound, the “Log2 Fold-Change” value (CAGL0I03608g) was 0.7862, the “Log2 Fold-Change” value (CAGL0I03630g) was 0.6284 and the “Log2 Fold-Change” value (CAGL0I04290g) was 0.6237. The “Log2 Fold-Change” value (CAGL0I05060g) was 0.5728, the “Log2 Fold-Change” value (CAGL0I05654g) was 0.7141 and the “Log2 Fold-Change” value (CAGL0I09350g) was 0.5587. For the same compound, the “Log2 Fold-Change” value (CAGL0I09702g) was 0.5611, the “Log2 Fold-Change” value (CAGL0I10670g) was 0.9553 and the “Log2 Fold-Change” value (CAGL0J00451g) was 2.136. For the same compound, the “Log2 Fold-Change” value (CAGL0J00473g) was 0.7426, the “Log2 Fold-Change” value (CAGL0J01023g) was 1.022 and the “Log2 Fold-Change” value (CAGL0J01045g) was 0.9433. For the same compound, the “Log2 Fold-Change” value (CAGL0J02376g) was 0.7958, the “Log2 Fold-Change” value (CAGL0J03718g) was 0.5395 and the “Log2 Fold-Change” value (CAGL0J05412g) was 0.5243. The “Log2 Fold-Change” value (CAGL0J07568g) was 0.7185, the “Log2 Fold-Change” value (CAGL0J07980g) was 0.7919 and the “Log2 Fold-Change” value (CAGL0J08250g) was 0.5358. The “Log2 Fold-Change” value (CAGL0J08910g) was 0.5502, the “Log2 Fold-Change” value (CAGL0J09196g) was 0.506 and the “Log2 Fold-Change” value (CAGL0J09460g) was 0.6815. For the same compound, the “Log2 Fold-Change” value (CAGL0J10032g) was 0.7428, the “Log2 Fold-Change” value (CAGL0J10252g) was 0.8692 and the “Log2 Fold-Change” value (CAGL0J10912g) was 0.7791. For the same compound, the “Log2 Fold-Change” value (CAGL0J11066g) was 0.8417, the “Log2 Fold-Change” value (CAGL0J11088g) was 0.5227 and the “Log2 Fold-Change” value (CAGL0J11242g) was 0.9997. The “Log2 Fold-Change” value (CAGL0J11286g) was 0.9034, the “Log2 Fold-Change” value (CAGL0K02211g) was 0.9809 and the “Log2 Fold-Change” value (CAGL0K02387g) was 0.933. The “Log2 Fold-Change” value (CAGL0K02431g) was 0.8737, the “Log2 Fold-Change” value (CAGL0K03861g) was 0.5943 and the “Log2 Fold-Change” value (CAGL0K05049g) was 0.5707. The “Log2 Fold-Change” value (CAGL0K05555g) was 0.5483, the “Log2 Fold-Change” value (CAGL0K06215g) was 1.181 and the “Log2 Fold-Change” value (CAGL0K07007g) was 1.24. The “Log2 Fold-Change” value (CAGL0K07898g) was 0.62, the “Log2 Fold-Change” value (CAGL0K08272g) was 0.5171 and the “Log2 Fold-Change” value (CAGL0K08360g) was 0.5636. The “Log2 Fold-Change” value (CAGL0K09284g) was 1.197, the “Log2 Fold-Change” value (CAGL0K09372g) was 0.5402 and the “Log2 Fold-Change” value (CAGL0K09614g) was 0.8683. The “Log2 Fold-Change” value (CAGL0K09922g) was 0.6435, the “Log2 Fold-Change” value (CAGL0L00583g) was 0.7346 and the “Log2 Fold-Change” value (CAGL0L02739g) was 0.6875. For the same compound, the “Log2 Fold-Change” value (CAGL0L02871g) was 0.8194, the “Log2 Fold-Change” value (CAGL0L03047g) was 0.9793 and the “Log2 Fold-Change” value (CAGL0L03696g) was 0.5808. For the same compound, the “Log2 Fold-Change” value (CAGL0L04092g) was 0.5318, the “Log2 Fold-Change” value (CAGL0L04114g) was 0.5841 and the “Log2 Fold-Change” value (CAGL0L04950g) was 0.896. The “Log2 Fold-Change” value (CAGL0L05170g) was 0.8533, the “Log2 Fold-Change” value (CAGL0L05258g) was 1.271 and the “Log2 Fold-Change” value (CAGL0L05500g) was 0.7913. For the same compound, the “Log2 Fold-Change” value (CAGL0L05566g) was 0.7478, the “Log2 Fold-Change” value (CAGL0L05786g) was 1.136 and the “Log2 Fold-Change” value (CAGL0L06468g) was 0.5199. For the same compound, the “Log2 Fold-Change” value (CAGL0L06754g) was 0.7195, the “Log2 Fold-Change” value (CAGL0L07678g) was 0.9514 and the “Log2 Fold-Change” value (CAGL0L07832g) was 0.9435. The “Log2 Fold-Change” value (CAGL0L08096g) was 0.673, the “Log2 Fold-Change” value (CAGL0L08206g) was 0.6805 and the “Log2 Fold-Change” value (CAGL0L08756g) was 0.7529. The “Log2 Fold-Change” value (CAGL0L08976g) was 0.7934, the “Log2 Fold-Change” value (CAGL0L10846g) was 0.7927 and the “Log2 Fold-Change” value (CDC21 CAGL0K05467g) was 0.5322. The “Log2 Fold-Change” value (FTR1 CAGL0I06743g) was 1.014, the “Log2 Fold-Change” value (GAT1 CAGL0K07634g) was 0.7416 and the “Log2 Fold-Change” value (HBN1 CAGL0B00990g) was 1.565. The “Log2 Fold-Change” value (HMX1 CAGL0A03905g) was 1.923, the “Log2 Fold-Change” value (KNH1 CAGL0H07997g) was 0.5109 and the “Log2 Fold-Change” value (NOP8 CAGL0B01397g) was 0.7894. The “Log2 Fold-Change” value (PDR16 CAGL0J07436g) was 0.9143, the “Log2 Fold-Change” value (SNQ2 CAGL0I04862g) was 0.5824 and the “Log2 Fold-Change” value (SUT1 CAGL0I04246g) was 0.7641. For the same compound, the “Log2 Fold-Change” value (SUT2 CAGL0L09383g) was 0.6785 and the “Log2 Fold-Change” value (TRR1 CAGL0I01166g) was 1.667.
